Test results reported in PMC6268492, “Synthesis and Antiangiogenic Activity of Novel Gambogic Acid Derivatives” (Molecules, 2012).
Where two headings read alike, the source gives them in different places.

What was measured:
[1] = system: transgenic fli-1: enhanced GFP zebrafish embryos; assay: Zebrafish embryo assay: antiangiogenic effects; format: in vivo, zebrafish (Danio rerio); settings: Danio rerio, zebrafish embryos
HCT116 = assay: MTT assay, cell proliferation; format: cell-based; settings: Homo sapiens, HCT-116, 24 h, read-out: IC50, inhibition of cell proliferation
Method in brief: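 Absorbance at 570 nm of DMSO-dissolved formazan was expressed as percentage growth relative to untreated cells, and IC50 was taken as the concentration giving 50% inhibition. Seeding was 5 × 10^3 cells per well, with 24 h compound treatment followed by 3 h MTT.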

HepG2 = assay: MTT assay, cell proliferation; format: cell-based; settings: Homo sapiens, 24 h, read-out: IC50, inhibition of cell proliferation
Method in brief: (§1)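 HepG2, HeLa and LO2 cells were grown in DMEM and K562 in RPMI 1640, each with 10% FBS at 37 °C, 5% CO2. Cells (5 × 10^3/well) were exposed to compound for 24 h, then to MTT for 3 h, and absorbance was read at 570 nm after DMSO solubilisation. IC50 gives 50% inhibition versus untreated control.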

K562 = assay: MTT assay, cell proliferation; format: cell-based; settings: Homo sapiens, 24 h, read-out: IC50, inhibition of cell proliferation
Method in brief: as §1

HeLa = assay: MTT assay, cell proliferation; format: cell-based; settings: Homo sapiens, 24 h, read-out: IC50, inhibition of cell proliferation
Method in brief: as §1

A549 = assay: MTT assay, cell proliferation; format: cell-based; settings: Homo sapiens, 24 h, read-out: IC50, inhibition of cell proliferation
Method in brief: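 Treatment lasted 24 h at 5 × 10^3 cells per well. MTT incubation ran 3 h, formazan was dissolved in DMSO and A570 was recorded. Percent growth against untreated wells gave the IC50 (50% inhibition).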

HUVECs = assay: Matrigel tube formation assay; format: cell-based, Human
Protocol: In the later stages of angiogenesis, tube formation of ECs is also an important process. Thus, a Matrigel tube formation assay was applied to assess the ability of HUVECs to form ECs vascular structures which is believed to be significant in new vessel formation.
Figure 4 Effects on the HUVECs tube formation. (I) HUVECs (1 × 10^4 cells) suspended in DMEM containing each compound (0.5 or 1 or 2 μM) were added to the Matrigel. Control was treated with DMEM alone. After incubation for 6 h at 37 °C, capillary networks were photographed and quantified (Olympus CKX41, magnification: 100×); (II) Rates of the HUVECs tube formation. The number of intact tubes was counted in five randomly chosen regions and expressed as the percentage of the control. The results were expressed as mean ±SD. ** p < 0.01; *** p < 0.005 compared with control.
Matrigel was dissolved at 4 °C overnight. Each well of prechilled 96-well plates was coated with 50 μL of Matrigel, incubated and solidified at 37 °C for 45 min. After removing the unsolidified fluid, HUVECs at the density of 1 × 10^4 were cultured in DMEM containing the indicated concentrations of compounds for 6 h. Controls were treated with the DMEM alone. Images were digitally captured and quantitatively analyzed (Olympus). The numbers and line lengths of the circular tubules formed by the cells were calculated manually. The values were observed from five randomly selected fields.

zebrafish embryos = assay: Zebrafish toxicity: heart rates; format: in vivo; settings: for Heart rates of zebrafish: control 117 beats/min
Protocol: To investigate the toxicity of these four compounds, the heart rates and the mortality rates of zebrafish embryos were recorded (Table 2 and Table 3). The heart rate of zebrafish in the control group was 117 beats/min.
Using transgenic fli-1: enhanced GFP zebrafish embryos, we investigated the effects of all compounds on angiogenesis. Zebrafish embryos were generated by natural pairwise mating and raised at 28.5 °C in embryo water (0.2 g/L of Instant Ocean Salt in distilled water). At about 6 h post fertilization (hpf), the embryos were sorted in the 6-well plate (six embryos/well), removing dead and unhealthy embryos. Then the embryos were treated with the indicated concentrations of compounds which were added into embryo water. After incubation for 24 or 48 h, the embryos were anesthetized using 0.05% 2-phenoxyethanol in embryo water, quantified and photographed.

Molecule `CC(=O)Nc1ccc(NC(=O)/C(C)=C\CC23OC(C)(C)C4CC(C=C5C(=O)c6c(O)c7c(c(CC8OC8(C)C)c6OC542)OC(C)(CCC2OC2(C)C)C=C7)C3=O)cc1` (stereo not shown) [Compound 36, (32,33),(37,38)-Diepoxy-N-(4-acetamidophenyl) gambogamide] has an inhibition in vivo at 1 µM ([1]; read-out: antiangiogenic rates) of 25 to 50%, an inhibition in vivo at 1 µM ([1]; vs vehicle (0.05% DMSO), read-out: Anti-angiogenic phenotype) of 25 to 50% and an inhibition in vivo at 2.5 µM ([1]; 2.5 μM, vs vehicle (0.05% DMSO), read-out: Anti-angiogenic phenotype) of 50 to 75%. For the same molecule, the inhibition in vivo at 10 µM ([1]; 10 μM, vs vehicle (0.05% DMSO), read-out: Anti-angiogenic phenotype) was over 75%, the IC50 (HCT116) was 560 ± 10 nM and the IC50 (HepG2) was 1850 ± 80 nM. For the same molecule, the IC50 (K562) was 280 ± 30 nM, the IC50 (HeLa) was 4.96 ± 0.88 µM and the IC50 (A549) was 1290 ± 140 nM. For the same molecule, the “improvement in the inhibition of tube formation compared with GA” value (HUVECs; 0.5 μM) was 2 fold, the inhibition at 0.5 µM (HUVECs; Homo sapiens, HUVEC, 0.5 μM, 6 h, vs control, read-out: inhibitory rates of tube formation) was 56.5% and the inhibition at 2 µM (HUVECs; Homo sapiens, HUVEC, 2 μM, read-out: tube formation inhibitory rate) was 100%. For the same molecule, the “inhibition of tubular structures” value (HUVECs; concentrations exceeding 1 μM) was “completely inhibit tubular structures”, the “heart rates relative to control group” value (zebrafish embryos; 2.5 µM and 10 µM, zebrafish) was “about half of the control group” and the “Heart rates of zebrafish” value (zebrafish embryos; 2.5 μM) was 60 ± 5.2 beats/min. The “Heart rates of zebrafish” value (zebrafish embryos; 10 μM) was 60 ± 2.86 beats/min.
